According to the supplement of paper PMC10949913:

Experiments:
Test in all cases: area under concentration-response curve (viability) (AUC (a.u.)); higher = less active
Conditions in all cases: 48 h
CU-ACC1 = test system: CU-ACC1
Method in brief: (§1)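 Three adrenocortical carcinoma cell lines were plated in 1,536-well plates at 500–1,000 cells/well in 5 µL medium, and 23 nL of each library compound was added at 11 concentrations. After 48 h, CellTiter-Glo was applied for 15 minutes at room temperature before luminescence was read. Each plate's signals were normalised to vehicle and empty-well controls. AC50 and area under the curve were taken from fitted concentration-response curves, with only inhibitory or non-responding curve classes retained.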

CU-ACC2 = test system: CU-ACC2
Method in brief: as §1

NCI-H295R = test system: NCI-H295R
Method in brief: as §1

Row | SMILES | area under concentration-response curve (CU-ACC1) | area under concentration-response curve (CU-ACC2) | area under concentration-response curve (NCI-H295R)
1 | CC(C)(C#N)c1cc(Cn2cncn2)cc(C(C)(C)C#N)c1 | 461 | 574 | 537
2 | CCC[C@@H]1C[C@@H](C(=O)N[C@@H]([C@H]2O[C@H](SC)[C@H](O)[C@@H](O)[C@H]2O)[C@H](C)Cl)N(C)C1 | 527 | 458 | 541
3 | CN1CCC(CC1)COC2=CN=C(N=C2)C3=CC(=CC=C3)CN4/N=C(\C=C/C4=O)C5=CC(=CC=C5)C#N | 474 | 596 | 549
4 | Cc1cn[nH]c1 | 492 | 575 | 524
5 | Cn1cc(-c2ccc3nnc(C(F)(F)c4ccc5ncccc5c4)n3n2)cn1 | 478 | 583 | 502
6 | CC[C@@H](C(N)=O)N1CCCC1=O | 532 | 520 | 545
7 | C[C@H]1CN(CCN1C2=CN=C(NC/3=C/C(=C\N(C)C3=O)C4=CC=NC(=C4CO)N5CC[N]6C7=C(CC(C)(C)C7)C=C6C5=O)C=C2)C8COC8 | 532 | 618 | 560
8 | Cc1nc(C)c(CN2CCN(C(c3ccc(F)cc3)c3ccc(F)cc3)CC2)nc1C | 481 | 563 | 471
9 | C[N]1C=C(C2=C1C=CC=C2)\C3=C(\C(=O)NC3=O)C4=C5CC(CN)CC[N]5C6=C4C=CC=C6 (stereo not given) | 517 | 620 | 559
10 | O=C(O)c1ccccc1-c1ccc(/C=c2\sc3nc4cc(Br)cnc4n3c2=O)o1 | 491 | 457 | 549
11 | OC1=C(C=CC=C1)C2=CC=C(C=C2)C3=CSC4=C3C(=C(/C#N)C(=O)N4)/O | 535 | 626 | 570
12 | N#Cc1ccc(N(Cc2ccc(Br)cc2)n2cnnc2)cc1 | 413 | 633 | 598
13 | N#Cc1ccnc(N2C(=O)CC[C@H]2C(=O)N(c2cncc(F)c2)[C@H](C(=O)NC2CC(F)(F)C2)c2ccccc2Cl)c1 | 486 | 613 | 560
14 | COc1cc2c(cc1OC)CN(CCc1ccc(NC(=O)c3cc(OC)c(OC)cc3NC(=O)c3cnc4ccccc4c3)cc1)CC2 | 560 | 640 | 569
15 | CN(CC1=CC2=C(N\C(=N/C2=O)C)C=C1)C3=CC=C(S3)C(=O)N[C@@H](CCC(O)=O)C(O)=O | 503 | 602 | 532
16 | CC(O)(C[S+](=O)([O-])c1ccc(F)cc1)C(=O)Nc1ccc(C#N)c(C(F)(F)F)c1 (stereo not given) | 454 | 482 | 447
17 | CCOC(=O)[C@H](CCc1ccccc1)N[C@@H](C)C(=O)N1[C@H](C(=O)O)C[C@@H]2CCC[C@@H]21 | 545 | 649 | 595
18 | CC(C)(OCc1nn(Cc2ccccc2)c2ccccc12)C(=O)O | 416 | 460 | 491

Row | SMILES | area under concentration-response curve (CU-ACC1) | area under concentration-response curve (CU-ACC2) | area under concentration-response curve (NCI-H295R)
19 | CN1CCN2c3ncccc3Cc3ccccc3C2C1 (stereo not given) | 494 | 579 | 556
20 | COc1cc([S+](C)(=O)[O-])ccc1Nc1nc2ccc(-c3ccc(NC(=O)[C@H](C)c4ccc(F)cc4)cc3)cn2n1 | 565 | 648 | 567
21 | CO[C@H]1CC[C@H](N(c2cc(C3=CCCCC3)sc2C(=O)[O-])C(=O)[C@H]2CC[C@H](C)CC2)CC1 | 514 | 613 | 573
22 | NCCc1c[nH]cn1 | 416 | 605 | 548
23 | CN1C(=O)C(=C\C2=C1N=C(NC3=CC=CC(=C3)C(O)=O)N=C2)/C4=C(Cl)C=CC=C4Cl | 515 | 528 | 483
24 | O=S(=O)([O-])CCS | 539 | 518 | 551
25 | N[C@@H](Cc1ccc(O)c(O)c1)C(=O)O | 503 | 612 | 534
26 | O=C(c1c(F)ccc(N[S+](=O)([O-])N2CC[C@@H](F)C2)c1F)c1c[nH]c2ncc(-c3cnc(C4CC4)nc3)cc12 | 470 | 574 | 474
27 | CCCc1nc2c(C)cc(-c3nc4ccccc4n3C)cc2n1Cc1ccc(-c2ccccc2C(=O)O)cc1 | 561 | 639 | 599
28 | O=C(NCC1CCOCC1)c1cnc(Nc2ccc(Cl)cc2Cl)nc1C(F)(F)F | 399 | 562 | 525
29 | Cc1ccc(-n2c(C)cc(-c3nnc4n3CCCCC4)c2C)cc1 | 575 | 647 | 595
30 | C#C[C@]1(O)CC[C@H]2[C@@H]3CCc4cc(OC)ccc4[C@H]3CC[C@@]21C | 414 | 475 | 457
31 | NC(=O)OCC(COC(N)=O)c1ccccc1 | 497 | 554 | 460
32 | CN(C)[C@H]\1[C@@H]2[C@@H](O)[C@@H]\3C(=C)C4=C(C(=CC=C4)O)C(=O)C3=C(\O)[C@@]2(O)C(=O)\C(=C1O)C(N)=O | 493 | 473 | 540
33 | COc1ccc2[nH]cc(CCNC(C)=O)c2c1 | 592 | 668 | 578
34 | CC(=O)NC(C)c1ccc(Oc2ccc(OC(C)C)cc2)cc1 (stereo not given) | 539 | 605 | 547
35 | CC1(C)CCC(=C(\C1)C2=CC=C(Cl)C=C2)/CN3CCN(CC3)C4=CC(=C(C=C4)C(=O)N[S+]([O-])(=O)C5=CC=C(NCC6CCOCC6)C(=C5)[N+]([O-])=O)OC7=CN=C8[NH]C=CC8=C7 | 511 | 573 | 478
